Measured values reported in patent US20230053540A1, “TREATMENT OF LIVER INJURY” (Massachusetts Institute of Technology, priority 2019, published 2023).

Test system: hepatocytes
Assay: Seq-Well scRNA-Seq of hepatocytes after APAP overdose (signature scores, DEG vs untreated)
Format: in vivo, mouse
Conditions: A6

CC(=O)Nc1ccc(O)cc1 [APAP, acetaminophen]
2-Mar pct.1: 0.611
2010003K11Rik pct.1: 0.396
2810007J24Rik pct.1: 0.675
8430408G22Rik pct.1: 0.041
Aadac pct.1: 0.673
Aass pct.1: 0.747
Abca1 pct.1: 0.604
Abhd2 pct.1: 0.37
Acaa1b pct.1: 0.752
Adck3 pct.1: 0.363
Adh1 pct.1: 0.74
Adh4 pct.1: 0.165
Agpat9 pct.1: 0.277
Akr1c6 pct.1: 0.675
Akr1c20 pct.1: 0.248
Alb pct.1: 1
Aldh1a1 pct.1: 0.862
Aldh3a2 pct.1: 0.064
Aldh8a1 pct.1: 0.418
Ang pct.1: 0.315
Apoa2 pct.1: 0.993
Apoa4 pct.1: 0.721
Apob pct.1: 0.99
Apoc1 pct.1: 0.962
Apoc3 pct.1: 0.869
Apoe pct.1: 1
Apol7a pct.1: 0.072
Arhgef12 pct.1: 0.578
Arl4d pct.1: 0.112
Asl pct.1: 0.826
Atp2a2 pct.1: 0.616
Atp5e pct.1: 0.506
Atp5h pct.1: 0.377
B4galt5 pct.1: 0.332
Bach1 pct.1: 0.461
Bcl2l1 pct.1: 0.501
Btg2 pct.1: 0.549
C8g pct.1: 0.673
C230081A13Rik pct.1: 0.279
Car3 pct.1: 0.854
Ccl6 pct.1: 0.274
Cd5l pct.1: 0.21
Cd14 pct.1: 0.153
Cd302 pct.1: 0.649
Cdkn1a pct.1: 0.702
Cers6 pct.1: 0.332
Ces3a pct.1: 0.831
Chchd2 pct.1: 0.718
Chka pct.1: 0.716
Cidec pct.1: 0.253
Clec4f pct.1: 0.339
Clqb pct.1: 0.234
Cltc pct.1: 0.661
Cml1 pct.1: 0.475
Cox4i1 pct.1: 0.869
Cox6c pct.1: 0.558
Cox7a2 pct.1: 0.456
Cox7b pct.1: 0.632
Creb3l2 pct.1: 0.329
Ctsl pct.1: 0.878
Ctss pct.1: 0.212
Cxadr pct.1: 0.606
Cyb5 pct.1: 0.916
Cyp4a14 pct.1: 0.776
D10Wsu102e pct.1: 0.37
Dbi pct.1: 0.819
Ddt pct.1: 0.539
Ddx3x pct.1: 0.692
Ddx5 pct.1: 0.685
Dusp5 pct.1: 0.196
Dusp6 pct.1: 0.482
Efhd2 pct.1: 0.468
Eif1a pct.1: 0.599
Eif4g2 pct.1: 0.757
Epas1 pct.1: 0.604
Etf1 pct.1: 0.606
Ets2 pct.1: 0.415
Fabp1 pct.1: 0.971
Fabp2 pct.1: 0.315
Fam134b pct.1: 0.678
Fdx1 pct.1: 0.305
Fga pct.1: 0.986
Fgb pct.1: 0.995
Fgg pct.1: 0.986
Fkbp5 pct.1: 0.415
Fxyd5 pct.1: 0.138
G6pc pct.1: 0.313
Gamt pct.1: 0.277
Gclc pct.1: 0.962
Gcnt2 pct.1: 0.372
Gjb2 pct.1: 0.678
Glyat pct.1: 0.468
Gm13775 pct.1: 0.284
Gm15564 pct.1: 0.983
Gm24601 pct.1: 0.241
Gm26924 pct.1: 1
Gn13 pct.1: 0.501
Gpt2 pct.1: 0.764
Gpx1 pct.1: 0.969
Grn pct.1: 0.582
Gsta1 pct.1: 0.32
Gulo pct.1: 0.076
H3f3b pct.1: 0.613
Haao pct.1: 0.621
Hacl1 pct.1: 0.489
Hagh pct.1: 0.573
Hba-a1 pct.1: 0.165
Hba-a2 pct.1: 0.131
Hbb-bs pct.1: 0.537
Hbb-bt pct.1: 0.246
Hebp1 pct.1: 0.43
Hes6 pct.1: 0.076
Hgd pct.1: 0.511
Hif1a pct.1: 0.427
Hilpda pct.1: 0.403
Hint1 pct.1: 0.57
Hmox1 pct.1: 0.558
Hnf4a pct.1: 0.835
Hpd pct.1: 0.883
Hsd3b5 pct.1: 0.062
Hsd17b13 pct.1: 0.864
Hspb8 pct.1: 0.709
Iigp1 pct.1: 0.78
Il1b pct.1: 0.236
Il1r1 pct.1: 0.683
Insig2 pct.1: 0.854
Itih2 pct.1: 0.893
Jak1 pct.1: 0.554
Jmjd1c pct.1: 0.47
Klf6 pct.1: 0.382
Krt8 pct.1: 0.826
Krt18 pct.1: 0.864
Lactb2 pct.1: 0.47
Lars2 pct.1: 1
Lifr pct.1: 0.389
Lpgat1 pct.1: 0.618
Lpin2 pct.1: 0.745
Lrg1 pct.1: 0.783
Lrrc58 pct.1: 0.711
Lyz2 pct.1: 0.234
Man2a1 pct.1: 0.671
Mat1a pct.1: 0.986
Mbl1 pct.1: 0.382
Mcm10 pct.1: 0.079
Mfsd2a pct.1: 0.465
Mgst1 pct.1: 0.938
Mmp8 pct.1: 0.136
Mrap pct.1: 0.606
Msrb1 pct.1: 0.558
Mt1 pct.1: 0.981
Mt2 pct.1: 0.938
Mthfd2 pct.1: 0.205
Mup3 pct.1: 1
Mup4 pct.1: 0.621
Mup5 pct.1: 0.475
Mup6 pct.1: 0.706
Mup7 pct.1: 0.831
Mup9 pct.1: 0.489
Mup11 pct.1: 0.511
Mup12 pct.1: 0.32
Mup15 pct.1: 0.076
Mup16 pct.1: 0.334
Mup17 pct.1: 0.871
Mup18 pct.1: 0.728
Mup19 pct.1: 0.759
Mup21 pct.1: 0.58
Myh9 pct.1: 0.718
Myo1e pct.1: 0.475
Ndufa4 pct.1: 0.656
Ndufa6 pct.1: 0.506
Nid1 pct.1: 0.229
Nop58 pct.1: 0.492
Nudt7 pct.1: 0.279
Oaf pct.1: 0.437
Oat pct.1: 0.05
Pah pct.1: 0.687
Pcbd1 pct.1: 0.535
Pck1 pct.1: 0.814
Phlda1 pct.1: 0.494
Picalm pct.1: 0.647
Plin2 pct.1: 0.943
Plscr1 pct.1: 0.329
Pon1 pct.1: 0.685
Ppib pct.1: 0.463
Ppl pct.1: 0.47
Ppm1k pct.1: 0.15
Prdx1 pct.1: 0.742
Psat1 pct.1: 0.229
Psen2 pct.1: 0.384
Ptprc pct.1: 0.153
Ranbp2 pct.1: 0.566
Rarres2 pct.1: 0.678
Rcan1 pct.1: 0.425
Rdh7 pct.1: 0.862
Rell1 pct.1: 0.375
Retnlg pct.1: 0.129
Retsat pct.1: 0.845
Rnase4 pct.1: 0.563
Rock2 pct.1: 0.425
Rora pct.1: 0.549
Rps27l pct.1: 0.484
S100a8 pct.1: 0.353
